# System: bed bugs
# Assay: forced exposure toxicity test on treated filter paper circles
# Assay type: in vivo, Cimex species
# Details: compound diluted 5% in acetone, bed bug mortality at 24 hours
# Procedure: Toxicity of compounds of structure (I) was determined by forced exposure testing under the following protocol. Five filter paper circles were laid on a flat surface and treated with the test compounds. Five replicates of five bed bugs were released onto each of the treated paper circles. Petri dish bottoms with circular openings were placed over the treated paper circles and served as the exposure arenas. The sides of the Petri dish bottoms were also painted with Fluon to prevent the bed bugs from climbing the sides. The bed bugs were thus confined to the treated paper circles for the duration of the test. Observations were made for mortality of the bed bugs at 24 hours.
row,SMILES,Mortality @ 24 hours
1,CCCCC1CC(=O)C=C(C)C1 (centres unmarked) [3-Methyl-5-Butyl-2-Cyclohexen-1-one],50%
2,CCC1CC(=O)C=C(C)C1 (centres unmarked) [3-Methyl-5-Ethyl-2-Cyclohexenone],78%
3,CC1=CC(O)CC(CC(C)C)C1 (centres unmarked) [3-Methyl-5-Isobutyl-2-cyclohexenol],10%
4,CCCC1CC(C)=CC(O)C1 (centres unmarked) [3-Methyl-5-propyl-2-cyclohexenol],60%
5,CCCC1CC(=O)C=C(C)C1 (centres unmarked) [3-Methyl-5-propyl-2-cyclohexenone],100%
